The results in this text go back to ChEMBL document CHEMBL1201862, “PubChem BioAssay data set” (2004).

For assay [1], the target named is Delta-type opioid receptor (Homo sapiens, UniProt P41143). As to the kind of experiment: Counterscreen for agonists of heterodimerization of the mu 1 (OPRM1) and delta 1 (OPRD1) opioid receptors: Luminescence-based cell-based high throughput dose response assay to identify agonists of OPRD1 homodimerization. [Related pubchem assays (depositor defined):AID504326, AID504355, AID504692, AID504904, AID504905]. The assay is classed as functional. In general terms: A counterscreen serves to expose hits that act by an unwanted route or on another target.

Assay [2] addresses T1, Short transient receptor potential channel 4 (Mus musculus, UniProt Q9QUQ5).
T1 sequence (Q9QUQ5 whole entry): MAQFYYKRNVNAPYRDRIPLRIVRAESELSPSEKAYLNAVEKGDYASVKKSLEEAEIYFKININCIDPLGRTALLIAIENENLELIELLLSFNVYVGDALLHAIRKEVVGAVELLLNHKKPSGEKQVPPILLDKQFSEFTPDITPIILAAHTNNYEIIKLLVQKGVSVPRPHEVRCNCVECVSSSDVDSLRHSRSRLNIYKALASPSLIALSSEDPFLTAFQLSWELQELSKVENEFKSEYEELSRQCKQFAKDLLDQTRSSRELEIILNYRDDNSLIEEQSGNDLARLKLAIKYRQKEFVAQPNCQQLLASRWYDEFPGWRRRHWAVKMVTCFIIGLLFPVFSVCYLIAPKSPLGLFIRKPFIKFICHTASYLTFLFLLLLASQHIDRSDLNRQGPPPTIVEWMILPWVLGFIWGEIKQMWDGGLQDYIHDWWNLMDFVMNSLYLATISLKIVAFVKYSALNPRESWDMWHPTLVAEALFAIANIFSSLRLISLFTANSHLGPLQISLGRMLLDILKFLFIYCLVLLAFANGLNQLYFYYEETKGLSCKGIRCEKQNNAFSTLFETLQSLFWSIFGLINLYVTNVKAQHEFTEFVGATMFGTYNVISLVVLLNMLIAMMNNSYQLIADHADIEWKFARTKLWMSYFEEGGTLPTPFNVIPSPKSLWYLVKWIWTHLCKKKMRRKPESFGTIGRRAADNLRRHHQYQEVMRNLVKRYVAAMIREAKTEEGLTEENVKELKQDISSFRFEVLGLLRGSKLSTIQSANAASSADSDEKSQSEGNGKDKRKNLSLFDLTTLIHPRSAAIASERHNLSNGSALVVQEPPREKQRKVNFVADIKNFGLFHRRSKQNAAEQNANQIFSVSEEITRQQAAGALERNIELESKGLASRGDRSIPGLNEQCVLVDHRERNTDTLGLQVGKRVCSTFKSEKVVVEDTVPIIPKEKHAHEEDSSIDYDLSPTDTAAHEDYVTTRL
As to the kind of experiment: calcium entry via TRPC4 opening agents – cell-based, HEK293 TRPC4/mu-opioid, Fluo-4 calcium, dose response (AID 434937). The assay is classed as functional.

The target of assay [3] is 5-hydroxytryptamine receptor 5A (Homo sapiens, UniProt P47898). The experiment in a line: Counterscreen for agonists of OPRM1-OPRD1 heterodimerization: luminescence-based cell-based high throughput dose response assay to identify agonists of 5-hydroxytryptamine (serotonin) 5A receptor (HTR5A). [Related pubchem assays (depositor defined):AID504326, AID504355, AID504692, AID504904, AID504905]. The assay is classed as functional.

In assay [4] the target is Mu-type opioid receptor (Homo sapiens, UniProt P35372). The experiment in a line: Counterscreen for agonists of heterodimerization of the mu 1 (OPRM1) and delta 1 (OPRD1) opioid receptors: Luminescence-based cell-based high throughput dose response assay to identify agonists of OPRM1 homodimerization. The assay is classed as functional.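 Also: U2OS cells expressing OPRM1 and beta-arrestin as split beta-galactosidase partners.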
Assay [5] can be described thus: THP-1 cell cytotoxicity, dose response, cytotoxicity control for non-replicating M. tuberculosis project (AID 489025). The assay is classed as functional.
Assay [6] is described as follows: loss of viability in HepG2 cells – cell-based, CellTiter-Glo, cherry-picked, cytotoxicity control for Shn3 inhibitor project, dose response (AID 624134). The assay is classed as functional. A general note: In ATP-based viability assays light output follows the ATP content of the culture.
The nature of assay [7]: HepG2 cell cytotoxicity, dose response, cytotoxicity control for non-replicating M. tuberculosis project (AID 489018). The assay is classed as functional. The conditions noted are these: Mycobacterium tuberculosis.
Assay [8] is described as follows: reduction of Shn3 3'UTR-driven luciferase in osteoblasts – cell-based, Clone20 osteoblasts, firefly luciferase, cherry-picked, dose response (AID 624132).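 Also: firefly luciferase luminescence from reporter carrying the Shn3 3'UTR in osteoblasts.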 The assay is classed as functional.
The target of assay [9] is T2, Microphthalmia-associated transcription factor (Homo sapiens, UniProt O75030).
T2 sequence (O75030 whole entry): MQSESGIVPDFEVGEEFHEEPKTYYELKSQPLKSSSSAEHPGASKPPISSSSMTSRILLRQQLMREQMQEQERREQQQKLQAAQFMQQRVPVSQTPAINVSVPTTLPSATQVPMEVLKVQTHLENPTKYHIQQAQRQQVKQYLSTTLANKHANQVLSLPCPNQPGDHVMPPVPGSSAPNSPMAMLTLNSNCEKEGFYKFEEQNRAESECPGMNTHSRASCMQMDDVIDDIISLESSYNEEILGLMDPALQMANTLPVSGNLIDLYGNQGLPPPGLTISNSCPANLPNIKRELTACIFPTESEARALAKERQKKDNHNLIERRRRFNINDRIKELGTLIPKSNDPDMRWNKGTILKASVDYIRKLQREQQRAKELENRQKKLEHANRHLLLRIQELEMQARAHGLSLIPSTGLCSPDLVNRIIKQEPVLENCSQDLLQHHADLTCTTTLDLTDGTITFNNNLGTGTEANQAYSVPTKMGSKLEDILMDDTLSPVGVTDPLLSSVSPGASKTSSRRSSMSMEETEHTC
The experiment in a line: reducers of TRPM1 reporter luminescence, concentration series – cell-based, SK-MEL-5, cherry-picked, set 3, MITF inhibitor project, dose response (AID 493073).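 Also: SK-MEL-5 melanoma cells with luciferase driven by the MITF target TRPM1 promoter.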 The assay is classed as functional.

The nature of assay [10]: non-specific 3'UTR reporter inhibition in Clone20-Shn3RL – cell-based, Renilla luciferase, cherry-picked, counter-screen for Shn3 inhibitor project, dose response (AID 624133). The assay is classed as functional.
Assay [11] can be described thus: Vero E6 cell cytotoxicity, dose response, cytotoxicity control for non-replicating M. tuberculosis project, secondary assay (AID 492998). The assay is classed as functional, VeroE6. The following applies: Vero C1008.
In assay [12] the target is T3, High affinity choline transporter 1 (Homo sapiens, UniProt Q9GZV3).
T3 sequence (Q9GZV3 whole entry): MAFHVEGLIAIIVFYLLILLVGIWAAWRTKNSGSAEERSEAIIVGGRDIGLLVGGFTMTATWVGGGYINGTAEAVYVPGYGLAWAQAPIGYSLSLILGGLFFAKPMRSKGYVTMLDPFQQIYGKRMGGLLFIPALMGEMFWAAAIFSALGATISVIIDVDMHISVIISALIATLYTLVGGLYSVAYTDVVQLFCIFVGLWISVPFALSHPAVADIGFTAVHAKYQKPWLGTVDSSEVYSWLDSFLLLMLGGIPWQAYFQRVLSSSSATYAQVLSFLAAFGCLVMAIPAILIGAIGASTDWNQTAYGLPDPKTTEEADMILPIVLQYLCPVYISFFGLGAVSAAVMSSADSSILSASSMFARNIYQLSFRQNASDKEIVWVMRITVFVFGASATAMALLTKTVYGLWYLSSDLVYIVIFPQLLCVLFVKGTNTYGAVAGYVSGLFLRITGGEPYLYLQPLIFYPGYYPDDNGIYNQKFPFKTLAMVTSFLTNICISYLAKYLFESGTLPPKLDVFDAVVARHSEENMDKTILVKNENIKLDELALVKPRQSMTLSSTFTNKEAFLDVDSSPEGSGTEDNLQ
As to the kind of experiment: human choline transporter blockers, potency – cell-based, 5-point CRC, membrane potential dye, dose response (AID 504840). The assay is classed as functional.

The nature of assay [13]: microbe, parasite or virus in culture. The conditions noted are these: Mycobacterium tuberculosis. The assay is classed as functional.
Assay [14] can be described thus: cells. The assay is classed as functional.
The test system of assay [15] is A-375. The experiment in a line: proliferation inhibition in MITF-low A375 cells – cell-based, cherry-pick samples, set 2, counter-screen for MITF modulator project, dose response (AID 540335). The assay is classed as functional. The conditions noted are these: Homo sapiens.
The nature of assay [16]: NIH3T3 cell viability loss – ATP luminescence, mouse fibroblasts, counter-screen, dose response (AID 2010).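 Also: cells exposed to compound for about 90 hours before reading.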 The assay is classed as functional, cell-based.
The target in assay [17] is C-C chemokine receptor type 6 (Homo sapiens, UniProt P51684). The experiment in a line: antagonism of CCR6 beta-arrestin recruitment – cell-based, luminescent beta-arrestin readout, dose response (AID 504728). The assay is classed as functional.
Assay [18] concerns the target T4, Heat shock factor protein 1 (Mus musculus, UniProt P38532).
T4 sequence (P38532 whole entry): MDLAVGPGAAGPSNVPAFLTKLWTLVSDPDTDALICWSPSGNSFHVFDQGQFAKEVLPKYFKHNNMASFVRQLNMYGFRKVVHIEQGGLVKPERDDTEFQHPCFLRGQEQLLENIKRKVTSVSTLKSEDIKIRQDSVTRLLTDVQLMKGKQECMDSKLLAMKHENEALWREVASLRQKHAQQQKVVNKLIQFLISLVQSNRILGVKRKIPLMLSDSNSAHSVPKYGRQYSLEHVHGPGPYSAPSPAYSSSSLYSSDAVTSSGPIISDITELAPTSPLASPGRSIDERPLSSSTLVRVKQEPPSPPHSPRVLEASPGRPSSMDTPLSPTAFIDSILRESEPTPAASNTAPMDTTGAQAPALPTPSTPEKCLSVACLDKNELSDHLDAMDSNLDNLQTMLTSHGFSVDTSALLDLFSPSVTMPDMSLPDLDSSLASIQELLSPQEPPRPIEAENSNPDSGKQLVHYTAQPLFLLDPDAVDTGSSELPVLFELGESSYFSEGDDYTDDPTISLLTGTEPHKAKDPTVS
As to the kind of experiment: decrease of HSF1-responsive luciferase luminescence – cell-based, NIH3T3, dose retest, confirmation (AID 2382).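 Also: NIH3T3 fibroblasts with HSF1-driven luciferase reporter stressed by proteasome inhibitor MG132; luminescence from HSF1-driven luciferase expression after 8 hours of MG132 stress.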 The assay is classed as functional.

Assay [19] concerns the target Beta-galactosidase (Escherichia coli, UniProt Q8VNN2). The experiment in a line: detection-enzyme interference by beta-gal modulators – biochemical, E. coli enzyme, set 3, artefact control for CCR6 antagonist project, dose response (AID 504712). The assay is classed as functional.
Assay [20] can be described thus: general cell-killing toxicity readout – plate reader, dry powder samples, cytotoxicity control for PAX8 inhibitor project, dose response (AID 743021). The assay is classed as functional, cell-based.
Assay [21] can be described thus: Trypanosoma cruzi growth suppression in host cells – NIH3T3 host cells, beta-gal luminescence, confirmation (AID 2044).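 Also: intracellular parasites grown in NIH/3T3 mouse fibroblasts as host cells; luminescent beta-galactosidase reporter signal from transgenic T. cruzi replicating inside host cells; inhibitors lower the luminescence signal.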 The assay is classed as functional, cell-based.
A short description of assay [22]: Luminescence Cell-Based Dose Retest to Confirm Inhibitors of Cancer Stem Cells. [Related pubchem assays (depositor defined):AID2717, AID2721]. The following applies: Homo sapiens. The assay is classed as functional.
The test system of assay [23] is INS1. As to the kind of experiment: INS-1E survival protection against cytokine death – cell-based, luminescence, retest, dose response (AID 449756).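 Also: cell death triggered by IL-1 beta plus TNF-alpha plus IFN-gamma mixture; protective hits raise ATP signal compared with cytokine alone wells.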 The conditions noted are these: Rattus norvegicus. The assay is classed as functional.
Assay [24] has as its target Paired box protein Pax-8 (Homo sapiens, UniProt Q06710). As to the kind of experiment: PAX8 transcriptional activity inhibition in RMG-I – RMG-I cells, luciferase, cherry-pick, dose response (AID 687027).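 Also: luciferase reporter driven by Pax8 target thyroperoxidase promoter measured by SteadyGlo luminescence.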 The assay is classed as functional, cell-based.

Active and inactive are the calls of the source. A value given as a limit tells only on which side of the number the result lay.

Sequence of Mu-type opioid receptor (P35372 whole entry): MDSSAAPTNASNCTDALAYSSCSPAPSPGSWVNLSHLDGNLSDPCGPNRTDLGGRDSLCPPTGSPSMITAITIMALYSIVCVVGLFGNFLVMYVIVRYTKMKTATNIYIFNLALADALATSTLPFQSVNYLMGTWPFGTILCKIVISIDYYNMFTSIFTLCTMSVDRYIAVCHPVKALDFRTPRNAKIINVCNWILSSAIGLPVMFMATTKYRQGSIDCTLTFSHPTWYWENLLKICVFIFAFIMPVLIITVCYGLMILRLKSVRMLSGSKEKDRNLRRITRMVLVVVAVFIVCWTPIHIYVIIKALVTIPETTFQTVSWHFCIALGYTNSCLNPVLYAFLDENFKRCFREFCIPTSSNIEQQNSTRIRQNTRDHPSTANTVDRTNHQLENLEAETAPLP
Sequence of Paired box protein Pax-8 (Q06710 whole entry): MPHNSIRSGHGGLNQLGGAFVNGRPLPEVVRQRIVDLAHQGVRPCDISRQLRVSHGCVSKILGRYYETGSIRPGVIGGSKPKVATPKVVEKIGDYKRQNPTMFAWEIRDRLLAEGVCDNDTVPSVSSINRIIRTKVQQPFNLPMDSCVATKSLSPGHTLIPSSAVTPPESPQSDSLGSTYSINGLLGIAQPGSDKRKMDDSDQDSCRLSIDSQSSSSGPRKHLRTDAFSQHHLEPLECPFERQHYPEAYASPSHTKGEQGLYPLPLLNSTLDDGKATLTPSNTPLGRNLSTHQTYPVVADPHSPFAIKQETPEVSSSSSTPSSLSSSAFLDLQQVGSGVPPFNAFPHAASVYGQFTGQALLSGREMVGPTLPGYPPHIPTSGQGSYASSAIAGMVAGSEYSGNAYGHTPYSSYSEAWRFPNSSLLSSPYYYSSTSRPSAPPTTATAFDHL
Sequence of Delta-type opioid receptor (P41143 whole entry): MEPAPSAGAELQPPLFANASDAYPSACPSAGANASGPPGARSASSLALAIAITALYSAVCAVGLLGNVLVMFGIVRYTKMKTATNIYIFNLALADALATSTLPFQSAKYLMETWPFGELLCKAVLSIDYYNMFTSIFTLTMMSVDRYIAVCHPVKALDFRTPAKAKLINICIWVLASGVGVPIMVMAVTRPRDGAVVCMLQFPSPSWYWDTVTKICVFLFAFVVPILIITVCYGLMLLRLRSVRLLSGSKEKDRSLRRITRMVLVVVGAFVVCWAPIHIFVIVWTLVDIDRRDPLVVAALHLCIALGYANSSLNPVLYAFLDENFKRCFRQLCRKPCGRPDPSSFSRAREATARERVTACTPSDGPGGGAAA
Sequence of Beta-galactosidase (Q8VNN2 whole entry): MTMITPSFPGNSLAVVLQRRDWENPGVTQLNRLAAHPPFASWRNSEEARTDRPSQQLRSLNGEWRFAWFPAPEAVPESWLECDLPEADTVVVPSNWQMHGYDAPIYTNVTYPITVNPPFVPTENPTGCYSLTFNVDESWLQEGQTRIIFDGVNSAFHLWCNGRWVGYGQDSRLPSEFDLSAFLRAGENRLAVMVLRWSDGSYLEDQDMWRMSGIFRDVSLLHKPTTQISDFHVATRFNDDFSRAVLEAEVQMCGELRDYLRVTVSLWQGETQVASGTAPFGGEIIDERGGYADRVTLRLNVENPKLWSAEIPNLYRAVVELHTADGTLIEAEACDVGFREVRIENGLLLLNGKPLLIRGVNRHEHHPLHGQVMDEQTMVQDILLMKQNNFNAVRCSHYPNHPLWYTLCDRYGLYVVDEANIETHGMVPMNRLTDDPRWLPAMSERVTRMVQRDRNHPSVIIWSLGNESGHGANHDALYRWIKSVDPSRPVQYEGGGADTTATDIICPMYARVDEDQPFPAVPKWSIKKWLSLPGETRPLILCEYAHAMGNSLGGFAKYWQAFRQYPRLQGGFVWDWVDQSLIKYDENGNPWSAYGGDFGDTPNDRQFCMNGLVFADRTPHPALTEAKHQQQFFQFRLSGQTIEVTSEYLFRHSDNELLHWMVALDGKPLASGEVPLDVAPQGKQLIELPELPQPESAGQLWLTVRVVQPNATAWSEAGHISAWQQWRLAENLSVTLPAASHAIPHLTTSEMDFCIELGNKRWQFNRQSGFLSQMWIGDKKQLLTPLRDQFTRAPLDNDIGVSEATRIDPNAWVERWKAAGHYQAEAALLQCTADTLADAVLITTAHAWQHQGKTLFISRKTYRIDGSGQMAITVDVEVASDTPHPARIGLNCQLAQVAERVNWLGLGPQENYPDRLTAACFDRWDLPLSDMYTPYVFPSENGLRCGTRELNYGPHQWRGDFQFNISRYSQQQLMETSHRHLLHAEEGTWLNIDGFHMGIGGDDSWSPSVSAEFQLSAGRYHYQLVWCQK
Sequence of 5-hydroxytryptamine receptor 5A (P47898 whole entry): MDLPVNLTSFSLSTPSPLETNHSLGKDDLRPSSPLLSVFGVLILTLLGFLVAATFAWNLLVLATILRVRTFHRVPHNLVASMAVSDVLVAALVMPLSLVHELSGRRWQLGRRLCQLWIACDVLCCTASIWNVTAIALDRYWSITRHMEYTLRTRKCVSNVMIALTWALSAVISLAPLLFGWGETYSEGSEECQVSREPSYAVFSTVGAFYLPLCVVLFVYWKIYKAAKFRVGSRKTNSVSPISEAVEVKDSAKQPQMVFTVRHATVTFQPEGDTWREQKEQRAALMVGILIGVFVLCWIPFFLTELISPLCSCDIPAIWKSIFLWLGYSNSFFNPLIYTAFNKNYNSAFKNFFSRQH
Sequence of C-C chemokine receptor type 6 (P51684 whole entry): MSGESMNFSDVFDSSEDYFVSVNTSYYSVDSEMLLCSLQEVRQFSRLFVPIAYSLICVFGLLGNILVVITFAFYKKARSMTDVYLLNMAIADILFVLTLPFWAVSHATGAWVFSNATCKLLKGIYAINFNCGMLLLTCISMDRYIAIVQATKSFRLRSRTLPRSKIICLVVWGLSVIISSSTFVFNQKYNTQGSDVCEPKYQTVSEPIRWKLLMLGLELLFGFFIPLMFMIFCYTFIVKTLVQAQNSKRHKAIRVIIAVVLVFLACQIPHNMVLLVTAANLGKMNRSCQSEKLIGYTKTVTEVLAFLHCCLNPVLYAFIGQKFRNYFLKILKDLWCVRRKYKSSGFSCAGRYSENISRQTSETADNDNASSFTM

For `COc1ccc(C(CNC(=O)c2ccc(S(=O)(=O)N(C)C)cc2)N(C)C)cc1` (stereo unspecified), the EC50 – broadly, the concentration at which the effect is half-maximal – in assay [1] is 85.6 µM (inactive); in assay [2], 1.5 µM (active); in assay [3], > 92.5 µM (inactive); in assay [4], > 92.5 µM (inactive).

`N=c1n(Cc2ccc(Cl)cc2)c2ccccc2n1CC(O)COc1ccccc1` (stereo unspecified): the CC50 was 11.8 µM (active) in assay [5], 8.02 µM (active) in assay [7], 11.8 µM (active) in [11] and 11.6 µM (active) in assay [13]. Besides, the AC50 (as a rule, the midpoint of the concentration-response curve, whichever way the signal moves) in [6] is 14.2 µM (active); in assay [8], 2.34 µM (active); in [9] it was 9.25 µM (active); in assay [10], 3.61 µM (active); in [15], 13.9 µM (active). Further, the IC50 (as a rule, the concentration at which inhibition is half-maximal) was 15 µM (active) in [12] and 14.1 µM (active) in [14].

`Cc1ccc(C(=O)N/C(=C\c2ccc(-c3ccc(Br)cc3)o2)C(=O)NCCCN(C)C)cc1`: the EC50 in [16] was > 30 µM (not active); in assay [18], 24.1 µM (active); in [21] it was 1.56 µM (active). The IC50 is 24.6 µM (inactive) in [17] and > 66.6 µM (inactive) in [19]. Moreover, the AC50 in [9] is 6.84 µM (active); in assay [20], 61.2 µM (active); in assay [22] it was 2.81 µM (active); in [15], 17.7 µM (active); in assay [23], 7.33 µM (active); in assay [24], 17.4 µM (active).
